Assay type in all cases: cell-based
One experiment has as its system LC3. Put plainly: Autophagy assay, LC3 immunoblot in human fibroblasts (Fed/Hbss, with bafilomycin A1). The settings on record: Hbss starvation, with BafA1. As to the method:
5 × 10^4 wild-type human fibroblasts were seeded in a 12-well plate and treated overnight with DMSO or different TRPML1 inhibitors (EDME, PRU-10, PRU-12). The day after, cells were treated for 3 h in full media (Fed) or HBSS supplemented with 10 mM HEPES (nutrient starved) in presence of DMSO or different TRPML1 inhibitors (EDME, PRU-10, PRU-12). For autophagic flux experiments, cells were co-treated with 100 nM of bafilomycin A1 (Sigma).
Total cell lysates were prepared using TRIS HCl 10 mM pH 8.0 and 0.2% SDS supplemented with protein and phosphatase inhibitors (Sigma). Protein concentration was determined using the Bradford method. After SDS–polyacrylamide gel electrophoresis (PAGE) and immunoblotting, the protein recognized by the specific antibody was visualized by chemiluminescence methods (Luminata Crescendo Western HRP substrate, Millipore) using HRP-conjugated anti-rabbit or anti-mouse secondary antibodies (Cell Signalling). Images were acquired using Li-Cor Odyssey Fc Imaging System and densitometric quantification of unsaturated images was performed using ImageJ software (NIH). Uncropped and unprocessed western blot scans are provided as Fig. S1. The following primary antibodies were used: LC3 (Novus Cat. No. NB100-2220, 1:1000 in 5% milk), TFEB (Cell Signaling Cat. No. 4240, 1:1000 in 5% BSA) and β-actin (Santa Cruz Cat. No. Sc-47778, 1: 1000 in 5% BSA).
(In western blotting, separated proteins are transferred to a membrane and probed.)

The next experiment concerns the target T1, hTRPML2-YFP (Homo sapiens, UniProt Q8IZK6).
T1 construct: expressed in transfected cells
T1 sequence (Q8IZK6 1-566): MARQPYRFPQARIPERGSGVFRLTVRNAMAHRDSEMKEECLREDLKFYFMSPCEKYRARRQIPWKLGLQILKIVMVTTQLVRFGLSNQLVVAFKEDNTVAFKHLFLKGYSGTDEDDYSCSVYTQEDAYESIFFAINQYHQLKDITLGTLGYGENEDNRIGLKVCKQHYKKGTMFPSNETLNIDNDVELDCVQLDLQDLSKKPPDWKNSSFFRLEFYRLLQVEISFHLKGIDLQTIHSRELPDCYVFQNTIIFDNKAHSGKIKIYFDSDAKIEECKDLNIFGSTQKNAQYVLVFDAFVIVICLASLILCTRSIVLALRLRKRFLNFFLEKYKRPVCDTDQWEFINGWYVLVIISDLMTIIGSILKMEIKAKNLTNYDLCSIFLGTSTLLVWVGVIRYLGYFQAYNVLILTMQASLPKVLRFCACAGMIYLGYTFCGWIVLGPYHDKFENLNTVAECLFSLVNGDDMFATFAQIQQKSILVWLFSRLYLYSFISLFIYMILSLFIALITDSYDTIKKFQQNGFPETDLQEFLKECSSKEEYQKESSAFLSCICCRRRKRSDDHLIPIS
Put plainly: Fluo-4 Ca2+ influx assay, HEK293 stably expressing hTRPML2-YFP, activated with ML-SA1.

Another experiment addresses T2, human ERα (Homo sapiens, UniProt P03372).
T2 construct: host or cells: Saccharomyces cerevisiae
Nature of the experiment: Yeast estrogen receptor assay (YES-assay), Saccharomyces cerevisiae transfected with human ERα, lacZ reporter. Conditions: 0.01-100 µM, 48 h. How it is done: The yeast estrogen receptor assay (YES-assay) was provided by Dr. J.P. Sumpter (Brunel University, Uxbridge, UK; Routledge & Sumpter, 1996) and was used to determine the relative transactivation activity of the human ERα in response to test substances as previously described. Briefly, Saccharomyces cerevisiae stably transfected with a human ERα construct and an estrogen responsive element fused to the reporter gene lacZ encoding for β-galactosidase were treated with the test substances for 48 h. The β-galactosidase enzymatic activity was measured in a colorimetric assay using the substrate chlorophenol red β-D-galactopyranoside (Roche Diagnostics, Mannheim Germany). Formation of chlorophenol red was measured at 540 nm. For the test, all compounds were diluted in DMSO. 17β-estradiol (10 nM; Sigma, Deisenhofen, Germany) served as positive control and DMSO was used as vehicle control. All compounds, were dose dependently tested in a concentration range of 0.01–100 µM, using technical quadruplicates and biological triplicates.

A further experiment deals with T3, hTRPML3-YFP (Homo sapiens, UniProt Q8TDD5).
T3 construct: expressed in transfected cells
T3 sequence (Q8TDD5 whole entry): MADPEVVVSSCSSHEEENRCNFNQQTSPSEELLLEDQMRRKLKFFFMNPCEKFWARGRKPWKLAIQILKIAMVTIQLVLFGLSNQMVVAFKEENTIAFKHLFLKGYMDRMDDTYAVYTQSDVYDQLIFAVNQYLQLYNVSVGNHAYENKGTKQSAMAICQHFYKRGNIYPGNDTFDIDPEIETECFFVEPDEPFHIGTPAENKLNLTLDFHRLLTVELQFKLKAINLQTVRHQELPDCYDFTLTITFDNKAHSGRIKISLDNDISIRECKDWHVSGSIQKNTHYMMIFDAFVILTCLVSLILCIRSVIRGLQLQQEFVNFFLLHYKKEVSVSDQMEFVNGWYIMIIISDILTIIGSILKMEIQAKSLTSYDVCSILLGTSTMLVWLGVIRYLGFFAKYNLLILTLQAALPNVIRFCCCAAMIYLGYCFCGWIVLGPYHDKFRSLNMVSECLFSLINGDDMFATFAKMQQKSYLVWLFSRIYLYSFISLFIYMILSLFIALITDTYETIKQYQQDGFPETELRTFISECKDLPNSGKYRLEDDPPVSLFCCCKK
Nature of the experiment: Fluo-4 Ca2+ influx assay, HEK293 stably expressing hTRPML3-YFP, activated with ML-SA1. How it is done:
To identify inhibitors of TRPML1 and TRPML3, the Spectrum Collection compound library (MS Discoveries; 2000 compounds) and additional 430 bioactive compounds were screened. To this end, fluorometric Ca^2+ influx assays were performed by using the calcium dye Fluo-4/AM (Invitrogen, Thermo Fisher Scientific, Waltham, MA, USA) and a custom-made fluorescence imaging plate reader built into a robotic liquid handling station (Freedom Evo 150, Tecan, Männedorf, Switzerland). All measurements were done in a HEPES buffered solution (HBS), containing 132 mM NaCl, 6 mM KCl, 1 mM MgCl2, 1 mM CaCl2, 5.5 mM D-glucose, 10 mM HEPES, pH 7.4. Screening compounds dissolved in DMSO (10 mM) were prediluted in 150 mM NaCl, 20 mM HEPES, pH 7.4, to a concentration of 200 µM. For primary screens, HEK293 stably expressing plasma membrane-targeted TRPML1 or TRPML3 were trypsinized and resuspended in cell culture medium supplemented with 4 µM Fluo-4/AM. After incubation at 37 °C for 30 min, the cell suspension was briefly centrifuged resuspended in HBS, and dispensed into black pigmented, clear-bottom 384-well microwell plates (Greiner μClear, Frickenhausen, Germany). Plates were placed into the FLIPR and fluorescence signals (excitation 470 nm, emission 515 nm) were recorded with a Zyla 5.5 camera (Andor, Belfast, UK) and the μManager software like previously described. In a first video, compound libraries were successively added to the cells with the Tecan 96-tip multichannel arm to a final concentration of 20 µM to map unspecific effects like autofluorescence or toxicity. In a second step the agonist ML-SA1 was pipetted in each well and fluorescence signals were recorded for 10 min. Analyses were done by calculating fluorescence intensities for each well and background areas with ImageJ (National Institutes of Health, Bethesda, MD, USA). Finally, the background was subtracted and the fluorescence intensities were normalized to initial intensities (F/F0). Concentration response curves were generated by the same procedure but compounds were manually prediluted in 96-well plates containing HBS, now supplemented with 0.1% bovine serum albumin. Here data was fitted to a four-parameter Hill equation to obtain Imin, Imax, IC50), and the Hill coefficient n.

Setting [1] is: TRPML2 IC50, Fluo-4, 5 µM ML-SA1, Table S1.
Setting [2] is: Fluo-4, 5 µM ML-SA1, Table S1, read-out: TRPML3 IC50.

This note sets out measurements from PMC8050276, “Estradiol analogs attenuate autophagy, cell migration and invasion by direct and selective inhibition of TRPML1, independent of estrogen receptors” (Scientific Reports, 2021).

Several values for one entry are separate records, joined by “and”; a condition that tells them apart may be missing. Equal entries are not always repeated. Entries after “also recorded” stand apart in the source; their conditions may differ. Where two headings read alike, the source gives them in different places.

T2 sequence (P03372 whole entry): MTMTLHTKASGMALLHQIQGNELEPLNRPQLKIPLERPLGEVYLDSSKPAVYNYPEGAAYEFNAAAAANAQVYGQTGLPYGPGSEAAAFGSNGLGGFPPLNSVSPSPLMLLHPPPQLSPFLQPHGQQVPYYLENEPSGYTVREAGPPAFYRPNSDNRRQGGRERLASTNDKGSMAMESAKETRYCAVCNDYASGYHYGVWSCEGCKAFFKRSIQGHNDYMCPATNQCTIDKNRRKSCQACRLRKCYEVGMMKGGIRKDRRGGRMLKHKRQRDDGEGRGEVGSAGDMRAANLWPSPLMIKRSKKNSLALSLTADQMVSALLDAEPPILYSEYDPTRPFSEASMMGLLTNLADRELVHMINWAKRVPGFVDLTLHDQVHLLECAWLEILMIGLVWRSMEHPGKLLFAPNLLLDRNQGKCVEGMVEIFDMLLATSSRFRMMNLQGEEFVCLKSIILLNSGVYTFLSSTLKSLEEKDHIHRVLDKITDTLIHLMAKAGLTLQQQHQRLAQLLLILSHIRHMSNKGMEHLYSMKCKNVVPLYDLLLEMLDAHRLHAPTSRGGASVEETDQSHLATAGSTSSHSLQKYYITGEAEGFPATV

By IC50 is commonly meant the midpoint of a concentration-inhibition curve. For the molecule `COc1ccc2c(c1)CC[C@@H]1[C@@H]2CC[C@]2(C)[C@@H](O)CC[C@@H]12` [EDME, 17β-estradiol methyl ether], the “concentration showing efficacy on autophagy (LC3)” value in the experiment on LC3 is given as 1 µM. The IC50 on hTRPML2-YFP (Fluo-4, 5 µM ML-SA1, Table S1, read-out: TRPML2 IC50) is 5.85 µM and 5.9 µM; on hTRPML3-YFP, 19.5 µM. For the same molecule, the “effect/efficacy at ERα” value at human ERα is recorded as “comparably strong effects”.
For the molecule `C=Cc1ccc2c(c1)CC[C@@H]1[C@@H]2CC[C@]2(C)[C@@H](O)CC[C@@H]12` [PRU-10], the “concentration showing efficacy on autophagy (LC3)” value with LC3 is listed as 3 µM. For the same molecule, the results for the IC50 at hTRPML2-YFP (setting [1]) and at hTRPML3-YFP (setting [2]) were 5.4 µM and 15.8 µM, respectively. Further, at human ERα, the “effect/efficacy at ERα” value was “relatively low efficacy; also recorded: weakest effects”.
On the same counts, the results for `CC(=O)c1ccc2c(c1)CC[C@@H]1[C@@H]2CC[C@]2(C)[C@@H](O)CC[C@@H]12` [PRU-12] are 1 µM, 5.28 µM, 14.1 µM and “relatively low efficacy; also recorded: weakest effects”.
